Data from patent US11078215B2, “Crystalline forms of lorlatinib maleate” (Pfizer Inc., priority 2016, dated 2021).
Where a name gives a salt, the structure may show the parent alone.

Assays:
[1] = Slurry experiments, thermodynamic stability of anhydrous lorlatinib maleate (Form 1); format: physicochemical
Description: The thermodynamic stability of anhydrous lorlatinib maleate (Form 1) and lorlatinib maleate hydrate (Form 2) was evaluated employing slurry experiments under a range of water activity and temperature conditions. Suspensions of Form 1 were equilibrated for two weeks in acetonitrile/water and methanol/water solvent systems with water activities (Aw) in the range of 0.1 to 0.9, at three different temperatures: 5° C., room temperature and 40° C. After 2 weeks, the solids in equilibrium were isolated and solid form was evaluated by PXRD.
Even a minimal amount of water (Aw=0.1) was sufficient to cause conversion of Form 1 to Form 2.

[2] = Solid-state physical stability of Form 1 API at temperature/% RH, form checked by PXRD; format: physicochemical; settings: for Solid Form (accelerated stability, PXRD): API
Text: The physical stability of anhydrous lorlatinib maleate (Form 1) API was investigated at a variety of temperatures and percent relative humidities (% RH). […]

[3] = Physical stability of Form 1 in excipient mixtures and tablets at 50° C./75% RH, PXRD; format: physicochemical; settings: for Output Solid Form: 1 week
Description: Binary and tertiary mixtures of Form 1 with various excipients were stored at 50° C./75% RH and solid form changes were monitored using PXRD.

[4] = Slurry experiments, thermodynamic stability of anhydrous lorlatinib maleate (Form 1); format: physicochemical; settings: 2 weeks
[5] = Physical stability of Form 1 in excipient mixtures and tablets at 50° C./75% RH, PXRD; format: physicochemical; settings: 2 weeks
[6] = Physical stability of Form 1 drug product vs. acetic acid solvate drug product
Description: The physical stabilities of Form 1 and lorlatinib acetic acid solvate as drug product were investigated under a variety of conditions.

For `C[C@H]1Oc2cc(cnc2N)-c2c(nn(C)c2C#N)CN(C)C(=O)c2ccc(F)cc21` [anhydrous lorlatinib maleate (Form 1), Anhydrous (10R)-7-amino-12-fluoro-2,10,16-trimethyl-15-oxo-10,15,16,17-tetrahydro-2H-8,4-(metheno)pyrazolo[4,3-h][2,5,11]benzoxadiazacyclotetradecine-3-carbonitrile (PF-06463922) Maleate (Form 1)], the “Slurry output, solid form by PXRD” value ([1]; acetonitrile, Aw 0, 5° C., 2 weeks) was “Form 1”, the “Slurry output, solid form by PXRD” value ([1]; acetonitrile, Aw 0, 40° C., 2 weeks) was “Form 1” and the “Slurry output, solid form by PXRD” value ([1]; acetonitrile/water, Aw 0.1, 5° C., 2 weeks) was “Form 2”. For the same compound, the “Slurry output, solid form by PXRD” value ([1]; acetonitrile/water, Aw 0.1, 40° C., 2 weeks) was “Form 2”, the “Slurry output, solid form by PXRD” value ([1]; acetonitrile/water, Aw 0.1, RT, 2 weeks) was “Form 2” and the “Slurry output, solid form by PXRD” value ([1]; acetonitrile/water, Aw 0.3, 5° C., 2 weeks) was “Form 2”. The “Slurry output, solid form by PXRD” value ([1]; acetonitrile/water, Aw 0.3, 40° C., 2 weeks) was “Form 2”, the “Slurry output, solid form by PXRD” value ([1]; acetonitrile/water, Aw 0.3, RT, 2 weeks) was “Form 2” and the “Slurry output, solid form by PXRD” value ([1]; acetonitrile/water, Aw 0.5, 5° C., 2 weeks) was “Form 2”. For the same compound, the “Slurry output, solid form by PXRD” value ([1]; acetonitrile/water, Aw 0.5, 40° C., 2 weeks) was “Form 2”, the “Slurry output, solid form by PXRD” value ([1]; acetonitrile/water, Aw 0.5, RT, 2 weeks) was “Form 2” and the “Slurry output, solid form by PXRD” value ([1]; acetonitrile/water, Aw 0.75, 5° C., 2 weeks) was “Form 2”. The “Slurry output, solid form by PXRD” value ([1]; acetonitrile/water, Aw 0.75, 40° C., 2 weeks) was “Form 2”, the “Slurry output, solid form by PXRD” value ([1]; acetonitrile/water, Aw 0.75, RT, 2 weeks) was “Form 2” and the “Slurry output, solid form by PXRD” value ([1]; acetonitrile/water, Aw 0.9, 5° C., 2 weeks) was “Form 2”. For the same compound, the “Slurry output, solid form by PXRD” value ([1]; acetonitrile/water, Aw 0.9, 40° C., 2 weeks) was “Form 2”, the “Slurry output, solid form by PXRD” value ([1]; acetonitrile/water, Aw 0.9, RT, 2 weeks) was “Form 2” and the “Form conversion in slurry (summary)” value ([1]; anhydrous conditions (Aw=0)) was “no conversion to the hydrate Form 2 detected”. The “Slurry output, solid form by PXRD” value ([1]; methanol, Aw 0, 5° C., 2 weeks) was “Form 1”, the “Slurry output, solid form by PXRD” value ([1]; methanol, Aw 0, RT, 2 weeks) was “Form 1” and the “Slurry output, solid form by PXRD” value ([1]; methanol/water, Aw 0.1, 5° C., 2 weeks) was “Form 2”. For the same compound, the “Slurry output, solid form by PXRD” value ([1]; methanol/water, Aw 0.1, 40° C., 2 weeks) was “solvate”, the “Slurry output, solid form by PXRD” value ([1]; methanol/water, Aw 0.1, 40° C., 2 weeks, listed as Form 1) was “solvated material” and the “Slurry output, solid form by PXRD” value ([1]; methanol/water, Aw 0.1, RT, 2 weeks) was “Form 2”. For the same compound, the “Slurry output, solid form by PXRD” value ([1]; methanol/water, Aw 0.3, 5° C., 2 weeks) was “Form 2”, the “Slurry output, solid form by PXRD” value ([1]; methanol/water, Aw 0.3, 40° C., 2 weeks) was “solvate” and the “Slurry output, solid form by PXRD” value ([1]; methanol/water, Aw 0.3, 40° C., 2 weeks, listed as Form 1) was “solvated material”. The “Slurry output, solid form by PXRD” value ([1]; methanol/water, Aw 0.3, RT, 2 weeks) was “Form 2”, the “Slurry output, solid form by PXRD” value ([1]; methanol/water, Aw 0.5, 5° C., 2 weeks) was “Form 2” and the “Slurry output, solid form by PXRD” value ([1]; methanol/water, Aw 0.5, 40° C., 2 weeks) was “Form 2”. The “Slurry output, solid form by PXRD” value ([1]; methanol/water, Aw 0.5, RT, 2 weeks) was “Form 2”, the “Slurry output, solid form by PXRD” value ([1]; methanol/water, Aw 0.75, 5° C., 2 weeks) was “Form 2” and the “Slurry output, solid form by PXRD” value ([1]; methanol/water, Aw 0.75, 40° C., 2 weeks) was “Form 2”. The “Slurry output, solid form by PXRD” value ([1]; methanol/water, Aw 0.75, RT, 2 weeks) was “Form 2”, the “Slurry output, solid form by PXRD” value ([1]; methanol/water, Aw 0.9, 5° C., 2 weeks) was “Form 2” and the “Slurry output, solid form by PXRD” value ([1]; methanol/water, Aw 0.9, 40° C., 2 weeks) was “Form 2”. For the same compound, the “Slurry output, solid form by PXRD” value ([1]; methanol/water, Aw 0.9, RT, 2 weeks) was “Form 2”, the “Form conversion in slurry (summary)” value ([1]; water activities 0.1 to 0.9, temperatures from 5° C. to 40° C., 2 weeks) was “converts to the thermodynamically more stable lorlatinib maleate hydrate (Form 2)” and the “Stability with respect to lorlatinib maleate hydrate (Form 2)” value [2] was “meta-stable”. For the same compound, the “Solid Form (accelerated stability, PXRD)” value ([2]; 25° C./60% RH without desiccation, 3 months) was “Multiple new PXRD peaks were observed, which were consistent with Form 2”, the “Solid Form (accelerated stability, PXRD)” value ([2]; 40° C./75% RH without desiccation, 3 months) was “nearly complete conversion to Form 2” and the “Solid Form (accelerated stability, PXRD)” value ([2]; 75% RH, ambient temperature, 6 months, listed as Form 1) was “full conversion to Form 2”. The “Solid Form (accelerated stability, PXRD)” value ([2]; 75% RH, ambient temperature, 6 months, listed as anhydrous lorlatinib maleate Form 1) was “Form 2”, the “Solid Form (accelerated stability, PXRD)” value ([2]; 90% RH, ambient temperature, 6 months, listed as Form 1) was “full conversion to Form 2” and the “Solid Form (accelerated stability, PXRD)” value ([2]; 90% RH, ambient temperature, 6 months, listed as anhydrous lorlatinib maleate Form 1) was “Form 2”. The “Output Solid Form” value ([3]; binary mixture with stearic acid) was “Form 2”, the “Solid form changes by PXRD (summary)” value ([3]; mixtures containing magnesium stearate) was “form changes after 2 weeks” and the “Solid form changes by PXRD (summary)” value ([3]; mixtures containing stearic acid) was “form changes after 1 week”. For the same compound, the “Output Solid Form” value ([3]; tertiary mixture with stearic acid, lactose) was “Form 2”, the “Output Solid Form” value ([3]; tertiary mixture with stearic acid, mannitol) was “Form 2” and the “Slurry output, solid form by PXRD” value ([4]; acetonitrile, Aw 0, RT) was “Form 1”. For the same compound, the “Slurry output, solid form by PXRD” value ([4]; methanol, Aw 0, 40° C.) was “Form 1”, the “Output Solid Form” value ([5]; tablet with DCP, magnesium stearate, Explotab) was “Form 1” and the “Output Solid Form” value ([5]; tablet with DCP, magnesium stearate, Polyplasdone XL) was “Form 1”. For the same compound, the “Output Solid Form” value ([5]; tablet with DCP, stearic acid, Explotab) was “Form 1”, the “Output Solid Form” value ([5]; tablet with DCP, stearic acid, Polyplasdone XL) was “Form 1” and the “Output Solid Form” value ([5]; tablet with mannitol, stearic acid, Polyplasdone XL) was “Form 1”. The “Physical stability of representative drug product formulation relative to the acetic acid solvate of lorlatinib free base” value ([6]; drug product formulation) was “superior physical stability”, the “impurity (solid phase impurity), physical stability of drug product” value (from here on “impurity (solid phase impurity)”) ([6]; 50° C./75% RH, 2 weeks) was roughly 10% impurity and the “impurity (solid phase impurity)” value ([6]; 70° C./10% RH, 3 weeks) was roughly 10% impurity. The “impurity (solid phase impurity)” value ([6]; 70° C./40% RH, 2 weeks) was roughly 10% impurity and the “impurity (solid phase impurity)” value ([6]; 70° C./75% RH, 1 week) was roughly 10% impurity.
